The structures appear in SMILES notation. pIC50, pKi: −log10 of the molar value.

Data set [1] addresses T1, Sodium channel protein type 9 subunit alpha (Homo sapiens, UniProt Q15858). The data set can be described thus: In vitro inhibitory concentration against Na v1.7 channel expressed in HEK293 cells using Voltage/Ion Probe Reader (VIPR) assay. The format is cell-based.
Target sequence in this assay (Q15858 whole entry): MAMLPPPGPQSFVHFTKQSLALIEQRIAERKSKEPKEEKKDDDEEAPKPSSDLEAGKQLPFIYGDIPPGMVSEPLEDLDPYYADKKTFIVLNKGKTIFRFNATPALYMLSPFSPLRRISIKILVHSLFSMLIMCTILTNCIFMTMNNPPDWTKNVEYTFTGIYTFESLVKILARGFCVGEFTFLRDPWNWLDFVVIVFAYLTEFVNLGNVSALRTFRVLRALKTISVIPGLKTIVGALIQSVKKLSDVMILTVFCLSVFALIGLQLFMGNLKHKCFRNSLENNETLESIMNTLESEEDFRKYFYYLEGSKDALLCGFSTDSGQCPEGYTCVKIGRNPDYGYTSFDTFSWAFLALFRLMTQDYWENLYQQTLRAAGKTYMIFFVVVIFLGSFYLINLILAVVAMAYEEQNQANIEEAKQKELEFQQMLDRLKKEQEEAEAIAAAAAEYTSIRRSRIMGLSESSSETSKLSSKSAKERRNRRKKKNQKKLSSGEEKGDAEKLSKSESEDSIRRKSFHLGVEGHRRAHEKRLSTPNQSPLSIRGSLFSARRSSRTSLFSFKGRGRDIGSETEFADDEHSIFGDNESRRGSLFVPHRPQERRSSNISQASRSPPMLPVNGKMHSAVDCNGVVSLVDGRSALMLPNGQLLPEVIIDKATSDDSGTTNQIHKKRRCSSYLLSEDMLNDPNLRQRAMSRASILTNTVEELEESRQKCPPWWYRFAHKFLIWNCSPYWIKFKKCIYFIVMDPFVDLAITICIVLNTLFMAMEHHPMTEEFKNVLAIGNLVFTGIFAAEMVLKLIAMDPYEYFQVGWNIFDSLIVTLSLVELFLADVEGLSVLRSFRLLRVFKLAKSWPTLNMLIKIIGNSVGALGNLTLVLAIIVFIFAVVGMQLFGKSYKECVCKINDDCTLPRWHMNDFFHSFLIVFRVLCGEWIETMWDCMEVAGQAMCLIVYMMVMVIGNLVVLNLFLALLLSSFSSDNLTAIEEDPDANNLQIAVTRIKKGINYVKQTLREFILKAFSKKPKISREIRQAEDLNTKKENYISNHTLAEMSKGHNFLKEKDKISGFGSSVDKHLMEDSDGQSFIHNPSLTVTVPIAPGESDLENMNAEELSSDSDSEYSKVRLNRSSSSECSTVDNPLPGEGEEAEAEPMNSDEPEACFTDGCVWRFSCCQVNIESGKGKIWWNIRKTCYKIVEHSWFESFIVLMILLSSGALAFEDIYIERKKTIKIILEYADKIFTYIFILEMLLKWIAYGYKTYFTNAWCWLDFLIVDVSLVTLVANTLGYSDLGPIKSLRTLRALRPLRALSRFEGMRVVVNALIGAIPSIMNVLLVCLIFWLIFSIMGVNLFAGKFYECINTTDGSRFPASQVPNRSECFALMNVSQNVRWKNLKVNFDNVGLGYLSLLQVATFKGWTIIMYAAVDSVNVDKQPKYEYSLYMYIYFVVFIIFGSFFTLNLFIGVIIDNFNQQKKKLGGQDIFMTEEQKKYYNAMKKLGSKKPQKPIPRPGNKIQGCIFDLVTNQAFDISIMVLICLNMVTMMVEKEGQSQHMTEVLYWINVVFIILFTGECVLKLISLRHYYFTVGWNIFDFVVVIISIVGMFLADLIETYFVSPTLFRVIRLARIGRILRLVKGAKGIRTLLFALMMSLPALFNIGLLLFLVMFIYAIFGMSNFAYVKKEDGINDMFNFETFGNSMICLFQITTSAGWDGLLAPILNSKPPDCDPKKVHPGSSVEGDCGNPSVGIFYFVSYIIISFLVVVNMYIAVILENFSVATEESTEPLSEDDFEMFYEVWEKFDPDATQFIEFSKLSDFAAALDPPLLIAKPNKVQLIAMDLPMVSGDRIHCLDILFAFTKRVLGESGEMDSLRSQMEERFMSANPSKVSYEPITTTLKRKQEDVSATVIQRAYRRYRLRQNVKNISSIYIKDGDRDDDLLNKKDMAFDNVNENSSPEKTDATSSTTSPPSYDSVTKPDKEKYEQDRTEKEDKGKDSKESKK
The target of the next data set is hERG (KCNH2) (Homo sapiens, UniProt Q12809). The data set can be described thus: Percent inhibition against displacement of 35[S] MK-499 binding to hERG channel expressed in HEK293 cells at a concentration of 10 uM. The format is cell-based. The following applies: HEK293 cells that express hERG, probe [35S]MK-499.
Sequence of hERG (KCNH2) (Q12809 whole entry): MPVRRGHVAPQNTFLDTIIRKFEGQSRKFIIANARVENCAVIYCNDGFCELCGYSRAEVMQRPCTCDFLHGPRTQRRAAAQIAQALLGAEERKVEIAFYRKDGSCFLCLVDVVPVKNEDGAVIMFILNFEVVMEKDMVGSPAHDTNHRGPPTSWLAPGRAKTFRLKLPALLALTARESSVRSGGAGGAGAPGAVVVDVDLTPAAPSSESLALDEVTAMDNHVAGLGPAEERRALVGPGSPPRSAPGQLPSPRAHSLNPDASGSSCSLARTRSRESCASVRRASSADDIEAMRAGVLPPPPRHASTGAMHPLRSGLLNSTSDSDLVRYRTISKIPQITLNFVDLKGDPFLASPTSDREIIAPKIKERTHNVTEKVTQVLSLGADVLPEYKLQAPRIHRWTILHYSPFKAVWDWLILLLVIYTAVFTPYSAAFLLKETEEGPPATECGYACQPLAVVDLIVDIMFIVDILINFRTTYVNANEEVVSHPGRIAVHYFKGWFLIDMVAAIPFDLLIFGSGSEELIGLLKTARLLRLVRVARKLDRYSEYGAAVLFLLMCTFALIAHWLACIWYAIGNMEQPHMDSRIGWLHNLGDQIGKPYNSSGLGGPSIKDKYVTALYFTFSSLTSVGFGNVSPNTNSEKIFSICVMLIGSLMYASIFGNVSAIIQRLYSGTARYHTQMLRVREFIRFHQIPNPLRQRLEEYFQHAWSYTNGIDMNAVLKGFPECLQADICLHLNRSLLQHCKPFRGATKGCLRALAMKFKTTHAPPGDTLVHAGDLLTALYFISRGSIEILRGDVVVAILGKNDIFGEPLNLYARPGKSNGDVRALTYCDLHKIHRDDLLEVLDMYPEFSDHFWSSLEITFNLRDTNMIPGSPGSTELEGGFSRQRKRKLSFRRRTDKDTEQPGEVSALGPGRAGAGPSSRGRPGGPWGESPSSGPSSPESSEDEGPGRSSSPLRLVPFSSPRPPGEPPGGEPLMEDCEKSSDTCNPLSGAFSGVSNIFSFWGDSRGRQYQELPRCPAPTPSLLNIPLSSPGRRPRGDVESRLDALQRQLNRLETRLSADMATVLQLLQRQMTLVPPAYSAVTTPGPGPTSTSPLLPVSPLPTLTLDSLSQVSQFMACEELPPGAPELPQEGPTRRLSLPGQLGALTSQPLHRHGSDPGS
Data set [2] addresses T2, Voltage-gated inwardly rectifying potassium channel KCNH2 (Homo sapiens, UniProt Q12809).
Description: In vitro inhibitory concentration against displacement of 35[S] MK-499 binding to hERG channel expressed in HEK293 cells
In data set [3] the target is T1, Sodium channel protein type 9 subunit alpha. The data set can be described thus: In vitro inhibitory concentration against Na v1.7 channel electrophysiology in inactivated state expressed in HEK293 cells using Voltage/Ion Probe Reader (VIPR) assay. The format is cell-based.
Target sequence in this assay (Q15858 whole entry): as the sequence (Q15858 whole entry) above
Data set [4] has the same target. Briefly: In vitro inhibitory concentration against Na v1.7 channel electrophysiology in resting state expressed in HEK293 cells using Voltage/Ion Probe Reader (VIPR) assay. The format is functional, cell-based.
Target sequence in this assay (Q15858 whole entry, looked up): as the sequence (Q15858 whole entry) above
A further data set relates to Rattus norvegicus. Briefly: Percent formalin paw response in rat at (10-40 min, 3 mg/kg, iv). The format is functional.
A short description of data set [5]: Bioavailability in rat. The format is ADME, organism-based. The following applies: in vivo.
Data set [6] can be described thus: Half-life in rat was determined. The format is ADME. The following applies: in vivo.
A short description of data set [7]: Clearance rate in rat was determined. The format is ADME, organism-based. The settings on record: plasma, read-out: Clp.
Data set [8] has as its target T2, Voltage-gated inwardly rectifying potassium channel KCNH2. Briefly: In vivo inhibitory concentration against displacement of 35[S] MK-499 binding to hERG channel expressed in HEK293 cells. The format is organism-based.
Data set [9] concerns the target T1, Sodium channel protein type 9 subunit alpha. Briefly: In vivo inhibitory concentration against Na v1.7 channel expressed in HEK293 cells using Voltage/Ion Probe Reader (VIPR) assay. The format is organism-based.
Target sequence in this assay (Q15858 whole entry): as above
Data set [10] shares this target. The settings on record: HEK293.
Target sequence in this assay (Q15858 whole entry, looked up): as the sequence (Q15858 whole entry) above

T2 sequence (Q12809 whole entry): as the sequence (Q12809 whole entry) above

For orientation: pIC50 means −log10 of the IC50, conventionally taken in molar units. Broadly, the inhibition is the percentage by which the read-out fell short of the control. Compound `O=C(c1ccccc1OCc1csc(-c2ccc(Cl)cc2)n1)N1CCCCCC1` showed a pIC50 in [1] of 4.40. This compound also yielded an inhibition at 10 µM at hERG (KCNH2) of 90%.
As to `COc1cccc(C(=O)N2CCCC2)c1OCc1nc(-c2ccc(Cl)cc2)no1`, in data set [1], the pIC50 is 6.07.
Same read-out and setting: in the case of `COc1cccc(CN2CCCCCCC2)c1OCc1csc(-c2ccc(Cl)cc2)n1` it was 5.42.
In data set [1], `COc1cccc(C(=O)N2CCCC2)c1OCCCc1ccccc1` showed a pIC50 of 4.68.
For `COc1cccc(C(=O)N2CCCCC2)c1OCc1csc(-c2ccc(Cl)cc2)n1`, the pIC50 in data set [1] was 5.43. The same compound returned an inhibition at 10 µM at hERG (KCNH2) of 63%.
Take `COc1cccc(C(=O)N2CCCC2)c1OCc1ccc(C(C)(C)C)cc1`: in [1], the negative logarithm of the IC50 (pIC50) was 4.05.
On the same count and under the same terms, in the case of `CC(C)(C)Oc1cccc(C(=O)N2CCCC2)c1OCc1csc(-c2ccc(Cl)cc2)n1` it was 4.66.
As for `COc1cccc(C(=O)N2CCCCCCC2)c1OCc1csc(-c2ccc(Cl)cc2)n1`, the pIC50 in [1] is 4.71. The same compound gave an inhibition at 10 µM at hERG (KCNH2) of 88%.
In data set [1], `CCOc1cccc(C(=O)N2CCCC2)c1OCc1csc(-c2ccc(Cl)cc2)n1` showed a negative-log IC50 (pIC50) of 5.18.
As to `COc1cccc(CN2CCCCCCC2)c1OCc1csc(-c2ccccc2)n1`, the pIC50 is 5.40 in data set [1] and 6.74 in data set [2].
In general, pKi refers to the negative decadic logarithm of the Ki, by convention in mol/L. A higher pKi goes with a low Ki. As usually defined, the bioavailability is the share of a dose that reaches the circulation, judged against a reference dose that is usually intravenous. Lower therefore signals little systemic uptake. One may read the half-life as how long it takes for the measured level to halve. Higher therefore signals slow loss. In data set [3], `COc1cccc(C(=O)N2CCCC2)c1OCc1csc(-c2ccc(Cl)cc2)n1` had a pKi of 6.85. Moreover, the pIC50 in data set [1] was 5.89; in data set [1] (hek293), 5.89; in data set [2], 5.11. Also, in data set [4], the KR was 10 µM. Moreover, the inhibition at 10 µM at hERG (KCNH2) was 50%. Moreover, the Activity with Rattus norvegicus is recorded as 68%. This compound also gave a bioavailability in data set [5] of 9.4%. For the same compound, the half-life in [6] was 28.8 min. Moreover, the clearance in data set [7] was 101 mL/min/kg.
As for `COc1cccc(C(=O)N2CCCCCC2)c1OCc1csc(-c2ccc(Cl)cc2)n1`, the pIC50 in [1] was 5.19. For the same compound, at hERG (KCNH2), the inhibition at 10 µM is 85%.
`COc1cccc(C(=O)N2CCCC2)c1OC(C)c1csc(-c2ccc(Cl)cc2)n1` (stereo not given) gave a pIC50 in [1] of 5.66.
For `O=C(c1ccccc1OCc1csc(-c2ccc(Cl)cc2)n1)N1CCCC1`, the negative logarithm of the IC50 (pIC50) in data set [8] is 5.01; in data set [9], 6.00; in [1], 6.00. For the same compound, the pKi in [3] is 6.80. On hERG (KCNH2), this compound displayed an inhibition at 10 µM of 63%. The compound further yielded an Activity in the data set on Rattus norvegicus of 65%. In data set [5], the bioavailability came out at 17%. The same compound showed a half-life in data set [6] of 26.4 min. The clearance in data set [7] was found to be 627 mL/min/kg. In addition, in data set [10], the KR is 6.7 µM.
Take `CC(C)Oc1cccc(C(=O)N2CCCC2)c1OCc1csc(-c2ccc(Cl)cc2)n1`: the pIC50 in [1] is 5.12.
The same measure, in the same setting: for `O=C(c1cccc(O)c1OCc1csc(-c2ccc(Cl)cc2)n1)N1CCCC1` the value was below 4.52; for `COc1cccc(C(=O)N2CCCC2)c1OC(C)c1ccccc1` (stereo not given), below 4.52.
`O=C(c1ccccc1OCc1csc(-c2ccc(Cl)cc2)n1)N1CCCCCCC1` gave a negative logarithm of the IC50 (pIC50) in [1] of 4.54. For the same compound, on hERG (KCNH2), the inhibition at 10 µM came out at 90%.
With `COc1cccc(C(=O)N2CCCC2)c1OCCc1ccccc1`, the pIC50 in [1] is below 4.52.
On the same count and under the same terms, in the case of `Clc1ccc(-c2nc(COc3ccccc3CN3CCCCCCC3)cs2)cc1` it was 5.54.
For the compound `O=C(c1ccccc1OCc1csc(-c2ccc(Cl)cc2)n1)N1CCCCC1`, in data set [1], the negative-log IC50 (pIC50) was 5.13. On hERG (KCNH2), this compound gave an inhibition at 10 µM of 89%.
`O=C(c1cccc(Cl)c1OCc1csc(-c2ccc(Cl)cc2)n1)N1CCCC1`: the negative logarithm of the IC50 (pIC50) in data set [1] was 6.14.
On the same count and under the same terms, for `COc1cccc(C(=O)N2CCCC2)c1OCc1ccc(-c2ccccc2)cc1` the value was 5.40; for `Cc1cccc(C(=O)N2CCCC2)c1OCc1csc(-c2ccc(Cl)cc2)n1`, 6.26.
Still for that read-out and setting: in the case of `COc1cccc(C(=O)N2CCCC2)c1OCc1ccc(-c2cccs2)s1` it was 6.26.

The values are drawn from ChEMBL document CHEMBL1140272, “Discovery of potent and use-dependent sodium channel blockers for treatment of chronic pain” (Bioorg Med Chem Lett, 2005).
